Experimental data reported in patent US20090170882A1, “Methods and compositions” (priority 2004, published 2009).

Assays:
A549 cells = settings: data provided by National Cancer Institute, Developmental Therapeutic Program; cited from earlier work
KSP motor domain = target: T1, KSP motor domain (Homo sapiens, UniProt P52732); experiment: KSP ATPase assay (IC50 for KSP activity); assay type: biochemical
T1 construct: 100 nM KSP motor domain, 50 μg/ml microtubules
T1 sequence (P52732 18-359 limits assumed): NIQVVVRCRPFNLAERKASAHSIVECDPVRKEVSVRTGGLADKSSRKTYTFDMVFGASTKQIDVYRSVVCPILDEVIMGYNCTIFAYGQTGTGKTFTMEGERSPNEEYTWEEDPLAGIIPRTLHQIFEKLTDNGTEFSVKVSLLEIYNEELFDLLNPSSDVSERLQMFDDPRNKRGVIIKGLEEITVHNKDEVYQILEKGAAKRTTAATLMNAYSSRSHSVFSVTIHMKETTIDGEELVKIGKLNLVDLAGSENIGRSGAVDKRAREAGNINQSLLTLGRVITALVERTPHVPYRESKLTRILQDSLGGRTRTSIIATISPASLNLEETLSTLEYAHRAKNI
Protocol: One measure of inhibition is IC50, defined as the concentration of the composition at which the activity of KSP is decreased by fifty percent relative to a control. Preferred compositions have […] of less than about 1 mM, with preferred embodiments having IC50's of less than about 100 μM, with more preferred embodiments having IC50's of less than about 10 μM, with particularly preferred embodiments having IC50's of less than about 1 μM, and especially preferred embodiments having IC50's of less than about 100 nM, and with the most preferred embodiments having IC50's of less than about 10 nM. Measurement of IC50 is done using an ATPase assay.
Measurement of a composition's IC50 for KSP activity uses an ATPase assay. The following solutions are used: Solution 1 consists of 3 mM phosphoenolpyruvate potassium salt (Sigma P-7127), 2 mM ATP (Sigma A-3377), 1 mM DTT (Sigma D-9779), 5 μM paclitaxel (Sigma T-7402), 10 ppm antifoam 289 (Sigma A-8436), 25 mM Pipes/KOH pH 6.8 (Sigma P6757), 2 mM MgC12 (VWR JT400301), and 1 mM EGTA (Sigma E3889). Solution 2 consists of 1 mM NADH (Sigma N8129), 0.2 mg/ml BSA (Sigma A7906), pyruvate kinase 7 U/ml, L-lactate dehydrogenase 10 U/ml (Sigma P0294), 100 nM KSP motor domain, 50 μg/ml microtubules, 1 mM DTT (Sigma D9779), 5 μM paclitaxel (Sigma T-7402), 10 ppm antifoam 289 (Sigma A-8436), 25 mM Pipes/KOH pH 6.8 (Sigma P6757), 2 mM MgC12 (VWR JT4003-01), and 1 mM EGTA (Sigma E3889). Serial dilutions (8-12 two-fold dilutions) of the composition are made in a 96-well microtiter plate (Corning Costar 3695) using Solution 1. Following serial dilution each well has 50 μl of Solution 1. The reaction is started by adding 50 μl of solution 2 to each well. This may be done with a multichannel pipettor either manually or with automated liquid handling devices. The microtiter plate is then transferred to a microplate absorbance reader and multiple absorbance readings at 340 nm are taken for each well in a kinetic mode. The observed rate of change, which is proportional to the ATPase rate, is then plotted as a function of the compound concentration. For a standard IC50 determination the data acquired is fit by the following four parameter equation using a nonlinear fitting program (e.g., Grafit 4): […]
where y is the observed rate and x the compound concentration. […] By this we mean that although most of the compounds that inhibited KSP activity biochemically did inhibit cell proliferation, for some, at the highest concentration tested (generally about 20 μM), cell growth was inhibited less than 50%. […] Anti-proliferative compounds that have been successfully applied in the clinic to treatment of cancer (cancer chemotherapeutics) have IC50's that vary greatly. […]

[1] = system: tumor cell lines including SKOV3 and Colo205; experiment: Inhibition of cellular proliferation in tumor cell lines (MTS, 48 hours); assay type: cell-based, human; settings: various tumor cell lines including SKOV3 and Colo205; 'typically'
Protocol: Cells were plated in 96-well plates at densities from 1000-2500 cells/well of a 96-well plate and allowed to adhere/grow for 24 hours. They were then treated with various concentrations of drug for 48 hours. The time at which compounds are added is considered T0. A tetrazolium-based assay using the reagent 3-(4,5-dimethylthiazol-2-yl)-5-(3-carboxymethoxyphenyl)-2-(4-sulfophenyl)-2H-tetrazolium (MTS) (U.S. Pat. No. 5,185,450) (see Promega product catalog #G3580, CellTiter 96® AQueous One Solution Cell Proliferation Assay) was used to determine the number of viable cells at T0 and the number of cells remaining after 48 hours compound exposure. The number of cells remaining after 48 hours was compared to the number of viable cells at the time of drug addition, allowing for calculation of growth inhibition.
The growth over 48 hours of cells in control wells that had been treated with vehicle only (0.25% DMSO) is considered 100% growth and the growth of cells in wells with compounds is compared to this.
An IC50 was calculated by plotting the concentration of compound in μM vs the percentage of cell growth of cell growth in treated wells. The IC50 calculated for the compounds is the estimated concentration at which growth is inhibited by 50% compared to control, i.e., the concentration at which:
All concentrations of compounds are tested in duplicate and controls are averaged over 12 wells. A very similar 96-well plate layout and IC50 calculation scheme is used by the National Cancer Institute (see Monks, et al., J. Natl. Cancer Inst. 83:757-766 (1991)).

Row | Compound | IC50 for inhibition of KSP (KSP motor domain) | IC50 for inhibition of proliferation of tumor cell lines [1] | IC50 (A549 cells)
1 | O=c1[nH]cc(F)c(=O)[nH]1 [5-fluorouracil] |  |  | 1000 nM
2 | Nc1cccc2c1[nH]c1ccc(C(F)(F)F)cc12 [6-(trifluoromethyl)-9H-carbazol-1-ylamine] | not active | not active | 
3 | CS(=O)(=O)Nc1ccc2[nH]c3ccc(C(F)(F)F)cc3c2c1 [6-(trifluoromethyl-9H-carbazol-3-yl)-methanesulfonamide] | not active | not active | 
4 | COc1cccc2c1C(=O)c1c(O)c3c(c(O)c1C2=O)C[C@@](O)(C(=O)CO)C[C@@H]3O[C@H]1C[C@H](N)[C@H](O)[C@H](C)O1 [doxorubicin] |  |  | 63 nM
5 | NC(=O)NO [hydroxyurea] |  |  | 500000 nM
6 | CC(=O)O[C@H]1C(=O)[C@@]2(C)[C@H]([C@H](OC(=O)c3ccccc3)[C@]3(O)C[C@H](OC(=O)[C@H](O)[C@@H](NC(=O)c4ccccc4)c4ccccc4)C(C)=C1C3(C)C)[C@]1(OC(C)=O)CO[C@@H]1C[C@@H]2O [paclitaxel] |  |  | 4 nM

Now from value to molecule, other results behind:

Row | IC50 for inhibition of KSP (KSP motor domain) | IC50 for inhibition of proliferation of tumor cell lines [1] | Compound | IC50 (A549 cells)
7 | not active | not active | NC(=O)Nc1ccc2[nH]c3ccc(C(F)(F)F)cc3c2c1 [(6-Trifluoromethyl-9H-carbazol-3-yl)-urea] | 
8 | not active | not active | CS(=O)(=O)Nc1cccc2c1[nH]c1ccc(C(F)(F)F)cc12 [N-[6-(trifluoromethyl)-9H-carbazol-1-yl]methanesulfonamide] | 
